From US20150307520A1, “NOVEL HETEROARYL AND HETEROCYCLE COMPOUNDS, COMPOSITIONS AND METHODS THEREOF” (HUTCHISON MEDIPHARMA LIMITED, priority 2012, published 2015)

What was measured:
Assay type in all cases: biochemical
[1] = molecular target: p110δ/p85α (Homo sapiens, UniProt O00329); assay: Transcreener KINASE Assay, kinase inhibition of p110δ/p85α; settings: for PI3Kδ IH % @ 1 uM: 1 uM test compound; for IC50: read-out: PI3Kδ IC50
In short: (§1)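 Kinase reactions run 80 min at room temperature, pH buffered with 50 mM HEPES plus 3 mM MgCl2 and 0.03% CHAPS; the PIP2/ATP mix added was 30 uM/10 uM. Generated ADP is then read by FP immunoassay.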

[2] = molecular target: p110γ (Homo sapiens, UniProt P48736); assay: Transcreener KINASE Assay, kinase inhibition of p110γ; settings: for PI3Kγ IH % @ 1 uM: 1 uM test compound; for IC50: read-out: PI3Kγ IC50
Sequence of p110γ (P48736 whole entry): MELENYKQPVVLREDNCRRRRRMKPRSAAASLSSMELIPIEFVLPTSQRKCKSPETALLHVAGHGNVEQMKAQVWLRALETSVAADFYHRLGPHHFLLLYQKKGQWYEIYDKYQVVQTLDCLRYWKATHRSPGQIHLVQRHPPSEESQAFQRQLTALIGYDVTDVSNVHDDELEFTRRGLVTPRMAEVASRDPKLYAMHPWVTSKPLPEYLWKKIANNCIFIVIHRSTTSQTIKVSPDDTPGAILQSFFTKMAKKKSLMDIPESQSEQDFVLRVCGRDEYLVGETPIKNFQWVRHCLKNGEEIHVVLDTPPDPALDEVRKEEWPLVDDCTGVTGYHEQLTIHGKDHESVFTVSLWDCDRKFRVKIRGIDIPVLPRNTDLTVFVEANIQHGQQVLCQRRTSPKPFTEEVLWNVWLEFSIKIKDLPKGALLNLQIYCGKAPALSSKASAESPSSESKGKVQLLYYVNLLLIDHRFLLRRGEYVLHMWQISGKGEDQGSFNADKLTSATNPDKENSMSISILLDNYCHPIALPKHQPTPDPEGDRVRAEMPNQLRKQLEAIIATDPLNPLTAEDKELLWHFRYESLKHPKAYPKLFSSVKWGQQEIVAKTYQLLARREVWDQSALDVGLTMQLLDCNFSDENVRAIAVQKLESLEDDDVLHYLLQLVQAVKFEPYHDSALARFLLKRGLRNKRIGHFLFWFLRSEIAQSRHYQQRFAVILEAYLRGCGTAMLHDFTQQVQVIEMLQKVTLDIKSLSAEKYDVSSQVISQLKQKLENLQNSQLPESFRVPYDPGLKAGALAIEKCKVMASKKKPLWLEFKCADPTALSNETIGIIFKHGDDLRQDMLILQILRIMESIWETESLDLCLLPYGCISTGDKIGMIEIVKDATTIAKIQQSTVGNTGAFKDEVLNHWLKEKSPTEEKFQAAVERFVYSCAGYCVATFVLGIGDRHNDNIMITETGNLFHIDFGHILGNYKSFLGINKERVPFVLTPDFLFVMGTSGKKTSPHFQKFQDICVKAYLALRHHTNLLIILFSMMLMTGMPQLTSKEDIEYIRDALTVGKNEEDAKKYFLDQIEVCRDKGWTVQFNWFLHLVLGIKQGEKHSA
In short: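 FP read-out: far-red competitive immunoassay sensing ADP produced by recombinant p110/p85 or p110γ enzyme. Reaction 80 min RT, then detection mix 60 min RT. IC50 from curve fit.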

[3] = molecular target: p110β/p85α (Homo sapiens, UniProt P42338); assay: Transcreener KINASE Assay, kinase inhibition of p110β/p85α; settings: for PI3Kβ IH % @ 1 uM: 1 uM test compound; for IC50: read-out: PI3Kβ IC50
Sequence of p110β/p85α (P42338 whole entry): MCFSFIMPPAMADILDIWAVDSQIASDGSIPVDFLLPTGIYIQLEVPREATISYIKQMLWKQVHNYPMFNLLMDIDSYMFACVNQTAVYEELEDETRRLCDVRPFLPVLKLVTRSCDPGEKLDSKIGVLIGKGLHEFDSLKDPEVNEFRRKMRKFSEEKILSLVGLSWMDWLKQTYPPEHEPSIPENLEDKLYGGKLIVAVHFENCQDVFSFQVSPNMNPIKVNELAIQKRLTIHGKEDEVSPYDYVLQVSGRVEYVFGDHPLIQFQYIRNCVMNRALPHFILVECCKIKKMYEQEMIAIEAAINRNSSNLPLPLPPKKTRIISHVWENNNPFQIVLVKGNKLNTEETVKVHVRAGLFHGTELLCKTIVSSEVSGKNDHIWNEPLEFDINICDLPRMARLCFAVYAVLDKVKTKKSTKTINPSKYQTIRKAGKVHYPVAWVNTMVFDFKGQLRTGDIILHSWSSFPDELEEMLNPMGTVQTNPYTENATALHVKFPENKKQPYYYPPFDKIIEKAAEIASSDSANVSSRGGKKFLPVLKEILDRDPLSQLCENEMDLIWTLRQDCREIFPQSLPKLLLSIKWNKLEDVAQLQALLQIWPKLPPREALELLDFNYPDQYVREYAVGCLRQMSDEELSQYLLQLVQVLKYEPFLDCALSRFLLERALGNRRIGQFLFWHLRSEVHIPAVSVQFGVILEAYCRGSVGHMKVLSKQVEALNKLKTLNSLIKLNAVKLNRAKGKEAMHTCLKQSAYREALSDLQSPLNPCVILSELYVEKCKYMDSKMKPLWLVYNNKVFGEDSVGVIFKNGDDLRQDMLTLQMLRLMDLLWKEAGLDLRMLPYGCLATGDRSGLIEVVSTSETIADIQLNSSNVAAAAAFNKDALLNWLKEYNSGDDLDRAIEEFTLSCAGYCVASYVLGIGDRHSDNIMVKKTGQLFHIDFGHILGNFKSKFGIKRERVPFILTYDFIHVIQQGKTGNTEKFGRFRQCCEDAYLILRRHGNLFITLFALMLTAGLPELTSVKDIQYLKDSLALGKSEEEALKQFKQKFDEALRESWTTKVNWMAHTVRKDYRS
Sequence of p110β/p85α (P27986 2-724 partner): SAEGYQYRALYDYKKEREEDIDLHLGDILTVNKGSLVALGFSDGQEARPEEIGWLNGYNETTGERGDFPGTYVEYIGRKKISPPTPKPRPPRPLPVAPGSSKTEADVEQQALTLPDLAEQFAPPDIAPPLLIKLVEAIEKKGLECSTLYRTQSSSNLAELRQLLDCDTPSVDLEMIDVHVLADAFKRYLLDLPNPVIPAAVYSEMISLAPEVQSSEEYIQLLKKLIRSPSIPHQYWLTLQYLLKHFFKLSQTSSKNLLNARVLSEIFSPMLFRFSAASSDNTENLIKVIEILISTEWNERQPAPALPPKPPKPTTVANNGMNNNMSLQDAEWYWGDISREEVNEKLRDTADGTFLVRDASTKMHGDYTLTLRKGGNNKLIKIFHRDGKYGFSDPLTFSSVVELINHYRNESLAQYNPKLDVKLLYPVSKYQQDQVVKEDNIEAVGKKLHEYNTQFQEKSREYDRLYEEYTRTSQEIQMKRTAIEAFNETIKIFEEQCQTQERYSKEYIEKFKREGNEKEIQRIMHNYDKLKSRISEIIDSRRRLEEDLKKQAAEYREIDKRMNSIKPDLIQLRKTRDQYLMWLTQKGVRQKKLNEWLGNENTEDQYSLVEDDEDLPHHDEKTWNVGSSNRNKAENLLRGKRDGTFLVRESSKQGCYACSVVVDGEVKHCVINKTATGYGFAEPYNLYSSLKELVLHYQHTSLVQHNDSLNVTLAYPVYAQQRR
In short: as §1

Sequence of p110δ/p85α (O00329 whole entry): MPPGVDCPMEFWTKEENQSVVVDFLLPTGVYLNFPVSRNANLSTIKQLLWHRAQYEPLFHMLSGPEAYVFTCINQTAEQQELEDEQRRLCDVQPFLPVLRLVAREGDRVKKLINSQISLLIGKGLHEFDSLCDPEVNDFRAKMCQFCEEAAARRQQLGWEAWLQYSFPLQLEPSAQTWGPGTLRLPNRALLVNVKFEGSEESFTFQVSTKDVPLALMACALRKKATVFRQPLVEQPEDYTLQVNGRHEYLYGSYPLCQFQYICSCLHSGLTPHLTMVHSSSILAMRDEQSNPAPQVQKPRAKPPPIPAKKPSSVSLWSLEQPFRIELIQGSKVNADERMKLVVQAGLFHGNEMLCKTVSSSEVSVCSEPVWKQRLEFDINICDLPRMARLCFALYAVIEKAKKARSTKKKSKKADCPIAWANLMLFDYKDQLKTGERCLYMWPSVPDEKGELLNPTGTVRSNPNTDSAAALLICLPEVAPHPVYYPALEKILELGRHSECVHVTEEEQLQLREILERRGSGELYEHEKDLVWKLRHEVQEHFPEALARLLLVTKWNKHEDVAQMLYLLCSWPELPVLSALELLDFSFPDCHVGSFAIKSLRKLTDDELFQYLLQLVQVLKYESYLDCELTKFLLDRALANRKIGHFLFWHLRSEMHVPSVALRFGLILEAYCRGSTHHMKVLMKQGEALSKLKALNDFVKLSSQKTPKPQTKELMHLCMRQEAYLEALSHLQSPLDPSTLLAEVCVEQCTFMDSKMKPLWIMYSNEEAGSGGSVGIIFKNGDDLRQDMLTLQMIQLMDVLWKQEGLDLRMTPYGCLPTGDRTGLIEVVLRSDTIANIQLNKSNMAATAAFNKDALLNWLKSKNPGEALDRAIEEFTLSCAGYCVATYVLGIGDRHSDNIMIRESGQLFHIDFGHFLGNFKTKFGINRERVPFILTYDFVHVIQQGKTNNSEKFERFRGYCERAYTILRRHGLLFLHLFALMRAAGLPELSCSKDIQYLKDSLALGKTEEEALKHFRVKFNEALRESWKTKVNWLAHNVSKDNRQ
Sequence of p110δ/p85α (P27986 whole entry partner): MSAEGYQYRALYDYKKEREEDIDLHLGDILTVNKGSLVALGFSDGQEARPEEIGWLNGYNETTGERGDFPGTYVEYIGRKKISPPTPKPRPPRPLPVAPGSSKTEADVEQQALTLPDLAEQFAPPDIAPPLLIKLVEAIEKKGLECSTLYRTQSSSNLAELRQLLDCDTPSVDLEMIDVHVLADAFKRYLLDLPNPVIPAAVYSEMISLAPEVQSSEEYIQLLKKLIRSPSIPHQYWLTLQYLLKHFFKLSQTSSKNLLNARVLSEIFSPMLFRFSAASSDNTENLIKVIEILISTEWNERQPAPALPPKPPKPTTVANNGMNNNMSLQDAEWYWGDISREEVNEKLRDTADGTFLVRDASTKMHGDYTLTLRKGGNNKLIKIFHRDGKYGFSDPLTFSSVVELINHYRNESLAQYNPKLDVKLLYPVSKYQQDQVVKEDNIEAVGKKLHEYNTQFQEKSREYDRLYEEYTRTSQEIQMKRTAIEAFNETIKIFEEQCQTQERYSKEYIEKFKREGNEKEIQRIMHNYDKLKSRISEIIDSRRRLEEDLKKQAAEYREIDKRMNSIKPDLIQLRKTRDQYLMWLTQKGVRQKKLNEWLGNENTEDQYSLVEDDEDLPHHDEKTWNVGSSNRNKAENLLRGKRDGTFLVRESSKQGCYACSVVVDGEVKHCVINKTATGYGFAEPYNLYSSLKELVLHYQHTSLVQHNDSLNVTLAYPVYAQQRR

Row | PI3Kδ IH % @ 1 uM [1] | IC50 [1] | PI3Kγ IH % @ 1 uM [2] | IC50 [2] | PI3Kβ IH % @ 1 uM [3] | IC50 [3] | Structure (SMILES)
1 | 81.3% | 160 nM | 89.0% | 9 nM | 43.2% |  | C[C@H]1CN(c2nc(N)ncc2C#N)C1c1nn2ccc(Cl)c2c(=O)n1-c1ccc(F)cc1 (stereo partly shown) [Compound 432]
2 | 92.0% | 3 nM | 84.1% |  | 52.9% |  | O=c1c2c(F)ccn2nc([C@@H]2CCCN2c2ncnc3[nH]cnc23)n1-c1ccccc1 [Compound 190]
3 | >100% | 0.1 nM | >100% | 6 nM | 88.3% | 22 nM | CC(=O)c1cnc(N)nc1N1CC(C)(C)C1c1nn2ccc(Cl)c2c(=O)n1-c1ccccc1 (stereo in doubt) [Compound 484, (R)-2-(1-(5-acetyl-2-aminopyrimidin-4-yl)-3,3-dimethylazetidin-2-yl)-5-chloro-3-phenylpyrrolo[2,1-f][1,2,4]triazin-4(3H)-one]
4 | 99.2% | 1 nM | >100% | 5 nM | 95.3% | 12 nM | N#Cc1c[nH]c2ncnc(N3C[C@@H](C#N)C[C@H]3c3nn4ccc(Cl)c4c(=O)n3-c3ccccc3)c12 [Compound 360]
5 | 80.4% |  | 91.1% | 143 nM | 12.6% |  | C=Cc1ccn2nc([C@@H]3CCN3c3ncnc4[nH]cc(C#N)c34)n(-c3ccccc3)c(=O)c12 [Compound 291]
6 | 98.1% | 1 nM | 93.1% | 7 nM | 71.7% | 123 nM | N#Cc1cnc(N)nc1N1CC(=O)C[C@H]1c1nn2ccc(Cl)c2c(=O)n1-c1ccccc1 [Compound 403]
7 | 97.9% | 25 nM | >100% | 27 nM | 79.2% | 103 nM | N#C[C@H]1C[C@@H](c2nn3ccc(Cl)c3c(=O)n2-c2ccc(F)cc2)N(c2ncnc3[nH]cnc23)C1 [Compound 361]
8 | >100% | 0.4 nM | 97.8% | 1 nM | 97.5% | 12 nM | CC(Nc1nc(N)nc2c1C(=O)CCN2)c1cn2ccc(Cl)c2c(=O)n1-c1ccccc1 (stereo not shown) [Compound 275]
9 | 99.3% |  | 98.6% |  | 76.9% |  | CC(Nc1ncnc2[nH]cc(F)c12)c1cc2ncc(Cl)n2c(=O)n1-c1ccccc1 (single isomer, unassigned) [Compound 450]
10 | >100% |  | 85.8% |  | 56.5% |  | O=c1c2c(Cl)ccn2nc([C@@H]2COCCN2c2ncnc3[nH]cnc23)n1-c1ccccc1 [Compound 153]
11 | 93.9% | 13 nM | 87.3% | 52 nM | 28.1% |  | C[C@H]1CN(c2nc(N)ncc2C#N)C1c1nn2ccc(F)c2c(=O)n1-c1ccccc1 (stereo partly shown) [Compound 430]
12 | >100% | 4 nM | 95.9% | 10 nM | 83.3% | 75 nM | C[C@H](Nc1nc(N)ncc1C#N)c1cc2ncc(Cl)n2c(=O)n1-c1ccccc1 (single isomer, unassigned) [Compound 385]
13 | 76.2% | 272 nM | 40.2% |  | 33.3% |  | N#Cc1c(N)ncnc1N1CC[C@H]1c1nn2cccc2c(=O)n1-c1ccccc1 [Compound 8]
14 | >100% | 96 nM | 45.2% |  | −2.1% |  | CC(=O)c1cnc(N)nc1N1CC(C)(C)[C@H]1c1nn2ccc(Cl)c2c(=O)n1-c1ccccc1 [Compound 485, (S)-2-(1-(5-acetyl-2-aminopyrimidin-4-yl)-3,3-dimethylazetidin-2-yl)-5-chloro-3-phenylpyrrolo[2,1-f][1,2,4]triazin-4(3H)-one]
15 | 98.6% | 5 nM | 71.8% | 153 nM | 34.5% |  | CC(C)Cn1c([C@@H]2CCCN2c2ncnc3[nH]cc(C#N)c23)nn2c(F)ccc2c1=O [Compound 107, (S)-4-(2-(7-fluoro-3-isobutyl-4-oxo-3,4-dihydropyrrolo[2,1-f][1,2,4]triazin-2-yl)pyrrolidin-1-yl)-7H-pyrrolo[2,3-d]pyrimidine-5-carbonitrile]
16 | >100% | 1 nM | 94.0% | 31 nM | 97.7% | 23 nM | CC(Nc1ncnc2[nH]cc(-c3ccc(N)nc3)c12)c1cc2ncc(Cl)n2c(=O)n1-c1ccccc1 (stereo not shown) [Compound 174]
17 | >100% | 1 nM | >100% |  | >100% | 25 nM | N#Cc1c[nH]c2ncnc(N3C[C@@H](F)C[C@H]3c3nn4ccc(Cl)c4c(=O)n3-c3ccccc3)c12 [Compound 74]
18 | 62.3% |  | 64.9% |  | 22.9% |  | O=C(c1c[nH]c2ncnc(N3CCC[C@H]3c3nn4ccc(Cl)c4c(=O)n3-c3ccccc3)c12)N1CCOCC1 [Compound 164]
19 | 99.5% | 0.4 nM | >100% | 4 nM | 95.8% | 22 nM | CC(=O)c1cnc(N)nc1N[C@@H](C)c1cc2ncc(Cl)n2c(=O)n1-c1ccccc1 [Compound 447, (S)-7-(1-((5-acetyl-2-aminopyrimidin-4-yl)amino)ethyl)-3-chloro-6-phenylimidazo[1,2-c]pyrimidin-5(6H)-one]
20 | >100% | 11 nM | 96.5% | 13 nM | 52.0% | 2350 nM | C[S@@+]([O-])c1c[nH]c2ncnc(N3CCC[C@H]3c3nn4ccc(F)c4c(=O)n3-c3ccccc3)c12 [Compound 397, 5-fluoro-2-((S)-1-(5-((R)-methylsulfinyl)-7H-pyrrolo[2,3-d]pyrimidin-4-yl)pyrrolidin-2-yl)-3-phenylpyrrolo[2,1-f][1,2,4]triazin-4(3H)-one]
21 | 99.4% | 12 nM | >100% | 21 nM | 6.1% |  | CC(=O)c1cnc(N)nc1N1CC[C@H]1c1nn2ccc(F)c2c(=O)n1-c1ccccc1 [Compound 323]
22 | >100% | 1 nM | >100% | 3 nM | 96.4% | 32 nM | Cc1nc(N)nc(N2C[C@H](C)[C@H]2c2nn3ccc(Cl)c3c(=O)n2-c2ccccn2)c1C#N [Compound 478]
23 | 90.1% | 207 nM | 11.9% |  | 26.0% |  | Nc1nc2cccc(N3CCC[C@H]3c3nn4ccc(Cl)c4c(=O)n3-c3ccccc3)n2n1 [Compound 54]
24 | 88.8% | 70 nM | 82.3% | 95 nM | 63.0% |  | CS(=O)(=O)c1c[nH]c2ncnc(N3CC[C@H]3c3nn4ccc(Cl)c4c(=O)n3-c3ccccc3)c12 [Compound 143]
25 | 61.9% |  | 70.2% | 158 nM | 17.8% |  | CC(=O)c1n[nH]c2ncnc(N3CC[C@H]3c3nn4ccc(Cl)c4c(=O)n3-c3ccccc3)c12 [Compound 298]
26 | 89.8% | 70 nM | 74.4% | 317 nM | 17.5% |  | N#Cc1c[nH]c2ncnc(N3CC[C@H]3c3nn4ccc(Cl)c4c(=O)n3CC3CC3)c12 [Compound 371, (S)-4-(2-(5-chloro-3-(cyclopropylmethyl)-4-oxo-3,4-dihydropyrrolo[2,1-f][1,2,4]triazin-2-yl)azetidin-1-yl)-7H-pyrrolo[2,3-d]pyrimidine-5-carbonitrile]
27 | 84.6% | 562 nM | 80.8% | 696 nM | 2.5% |  | Nc1nc2c(c(N3CCC[C@H]3c3nn4ccc(Cl)c4c(=O)n3-c3ccccc3)n1)CCC2 [Compound 246]
28 | >100% |  | 85.9% | 295 nM | 74.7% | 237 nM | CC(Nc1ncnc(N)c1C#N)c1cc2cccn2c(=O)n1-c1ccccc1 (stereo not shown) [Compound 120]
29 | 91.0% | 240 nM | 53.6% |  | 24.7% |  | C[C@@H](Nc1nc(N)ncc1C#N)c1cc2ncc(Cl)n2c(=O)n1-c1ccccc1 [Compound 384, (R)-2-amino-4-((1-(3-chloro-5-oxo-6-phenyl-5,6-dihydroimidazo[1,2-c]pyrimidin-7-yl)ethyl)amino)pyrimidine-5-carbonitrile]
30 | >100% |  | 94.9% |  | 79.8% |  | C[C@H]1CCN(c2nc(N)ncc2C#N)C1c1nn2ccc(Cl)c2c(=O)n1-c1ccccc1 (stereo partly shown) [Compound 236]
